Measured values published in PubChem BioAssay (NCI).
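Values below derive from 48-hour exposures of cells grown in 96-well plates, with endpoints linearly interpolated between the two concentrations bracketing the appropriate inhibition level. GI50 is the concentration that inhibits growth by half. TGI: concentration producing complete growth inhibition.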

Assays:
Test in all cases: inhibition of tumour cell growth, NCI panel, 48 h
[1] = tested on: NCI-H226 lung
[2] = tested on: OVCAR-8 ovarian
[3] = tested on: SF-539 CNS
[4] = tested on: SK-MEL-5 melanoma
[5] = tested on: SN12C renal
[6] = tested on: HOP-62 NSCLC
[7] = tested on: HT29 colon

COC(=O)/C(=N\NC(=S)NN)C(C(=O)C(=O)Nc1ccccc1C(N)=O)c1nc2ccccc2[nH]c1=O (stereo not given)
TGI [1]: > 100 µM | TGI [2]: > 100 µM | TGI [3]: > 100 µM | TGI [4]: > 100 µM | TGI [5]: > 100 µM

CCOc1cccc2nc3cccc(C(=O)NCCN(C)C)c3nc12
TGI [6]: 2.18 µM | TGI [7]: 7.14 µM | TGI [1]: 2.08 µM | TGI [2]: > 20.4 µM | TGI [3]: 6.77 µM | TGI [5]: 3.59 µM

COc1ccc(C(=O)C(C(=O)CCC(=O)Nc2cccc(C(F)(F)F)c2)c2ccccc2)cc1 (stereo not given)
TGI [6]: > 100 µM | TGI [7]: > 100 µM | TGI [1]: > 100 µM | TGI [2]: > 100 µM | TGI [3]: > 100 µM | TGI [4]: > 100 µM | TGI [5]: > 100 µM

N#Cc1c(N)c(C(=O)O)nn(-c2cccc(C(F)(F)F)c2)c1=O
TGI [7]: > 100 µM | TGI [2]: > 100 µM | TGI [3]: > 100 µM | TGI [4]: > 100 µM | TGI [5]: > 100 µM

CC1(C)OC(=O)C=C([O-])O1.CC1(C)OC(=O)C=C([O-])O1.O=c1c(O)c(-c2ccc([O-])cc2[O-])oc2cc(O)cc(O)c12.[Ti+4]
TGI [6]: > 100 µM | TGI [7]: > 100 µM | TGI [1]: > 100 µM | TGI [2]: > 100 µM | TGI [3]: 60.2 µM | TGI [4]: > 100 µM | TGI [5]: > 100 µM

C=C(COC(C)=O)CC(/C=C(\C)CCC=C(C)C)OC(C)=O (stereo not given)
TGI [6]: > 100 µM | TGI [7]: > 100 µM | TGI [1]: > 100 µM | TGI [2]: > 100 µM | TGI [3]: > 100 µM | TGI [4]: > 100 µM | TGI [5]: > 100 µM

O=C1N[C@@H](O)[C@@H]2ON=C(c3ccccc3)[C@H]12
TGI [6]: > 100 µM | TGI [7]: > 100 µM | TGI [1]: > 100 µM | TGI [2]: > 100 µM | TGI [3]: > 100 µM | TGI [4]: > 100 µM | TGI [5]: > 100 µM

CC/C=C\C/C=C\C1CC(=O)NCCCNCCCCN1 (stereo not given)
TGI [6]: > 100 µM | TGI [7]: > 100 µM | TGI [1]: > 100 µM | TGI [2]: > 100 µM | TGI [3]: > 100 µM | TGI [4]: > 100 µM | TGI [5]: > 100 µM

CN(C)C(=S)/N=c1\ss/c(=N\S(=O)(=O)c2ccccc2)n1-c1ccccc1
TGI [6]: 98.3 µM | TGI [7]: > 100 µM | TGI [1]: > 100 µM | TGI [2]: > 100 µM | TGI [3]: > 100 µM | TGI [4]: 78.3 µM | TGI [5]: > 100 µM

CC1(C)CCc2cc3c(cc2O1)OCCC3=O
TGI [6]: > 100 µM | TGI [7]: > 100 µM | TGI [1]: > 100 µM | TGI [2]: > 100 µM | TGI [3]: > 100 µM | TGI [4]: > 100 µM | TGI [5]: > 100 µM

COc1cc(/C=C/C(=N\NC(=O)c2ccccc2)c2sc(Nc3ccc(Cl)c(Cl)c3)nc2C)ccc1O
TGI [6]: > 100 µM | TGI [7]: > 100 µM | TGI [1]: 56 µM | TGI [2]: > 100 µM | TGI [3]: > 100 µM | TGI [5]: > 100 µM

CC(C)(C)C1(O)Cc2ccccc2C(=O)O1 (stereo not given)
TGI [6]: > 100 µM | TGI [7]: > 100 µM | TGI [1]: > 100 µM | TGI [2]: > 100 µM | TGI [3]: > 100 µM | TGI [4]: > 100 µM | TGI [5]: > 100 µM

O=C(Nc1ccc(S(=O)(=O)N[C@@H](C(=O)O)c2ccccc2)cc1)c1ccc(F)cc1
TGI [7]: > 100 µM | TGI [2]: > 100 µM | TGI [3]: > 100 µM | TGI [4]: > 100 µM | TGI [5]: > 100 µM

COc1ccc(C2=NC(C)(C)CO2)cc1
TGI [6]: > 100 µM | TGI [7]: > 100 µM | TGI [2]: > 100 µM | TGI [3]: > 100 µM | TGI [4]: > 100 µM | TGI [5]: > 100 µM

CC1=Nc2c(ccc3c2C(=O)c2ccccc2C3=O)NC(c2ccncc2)C1 (stereo not given)
TGI [6]: > 100 µM | GI50 [7]: > 100 µM | TGI [7]: > 100 µM | GI50 [1]: > 100 µM | TGI [1]: > 100 µM | GI50 [2]: > 100 µM | TGI [2]: > 100 µM | GI50 [3]: > 100 µM | TGI [3]: > 100 µM | TGI [4]: > 100 µM | TGI [5]: > 100 µM

CC(=O)OCCOCBr
TGI [6]: > 100 µM | TGI [7]: > 100 µM | TGI [1]: > 100 µM | TGI [2]: > 100 µM | TGI [3]: > 100 µM | TGI [4]: > 100 µM | TGI [5]: > 100 µM

NS(=O)(=O)c1ccc(NC(=O)c2cccc3c(=O)c4ccccc4[nH]c23)cc1
TGI [6]: > 100 µM | TGI [7]: > 100 µM | TGI [1]: > 100 µM | TGI [2]: > 100 µM | TGI [3]: > 100 µM | TGI [4]: > 100 µM | TGI [5]: > 100 µM

c1cc[c]([Sn]([S]c2cccc3cccnc23)([c]2ccccc2)[c]2ccccc2)cc1
GI50 [6]: 0.103 µM | TGI [6]: 0.368 µM | GI50 [7]: 0.0223 µM | TGI [7]: 0.0908 µM | GI50 [2]: 0.0387 µM | TGI [2]: 0.255 µM | GI50 [3]: 0.0725 µM | TGI [3]: 0.393 µM | GI50 [4]: 0.042 µM | TGI [4]: 0.277 µM | GI50 [5]: 0.0326 µM | TGI [5]: 0.161 µM

COc1ccc(/C=C/C(=O)c2sc(-n3nc(-c4ccccc4)cc3-c3ccccc3)nc2C)cc1OC
TGI [6]: > 100 µM | TGI [7]: > 100 µM | TGI [1]: > 100 µM | TGI [2]: > 100 µM | TGI [3]: 81.1 µM | TGI [5]: > 100 µM

NC1=NC(=O)C(CC(=O)Nc2ccc([N+](=O)[O-])cc2[N+](=O)[O-])S1 (stereo not given)
TGI [6]: > 100 µM | TGI [7]: > 100 µM | TGI [1]: > 100 µM | TGI [2]: > 100 µM | TGI [4]: > 100 µM | TGI [5]: > 100 µM

Clc1ccc(CNc2nc3ccccc3nc2-c2cccs2)c(Cl)c1
TGI [6]: > 100 µM | TGI [7]: > 100 µM | TGI [1]: > 100 µM | TGI [2]: > 100 µM | TGI [3]: > 100 µM | TGI [5]: > 100 µM

CC(O)CN1C(=O)NC(Cc2ccccc2)C1=O (stereo not given)
TGI [6]: 86.3 µM | TGI [7]: > 100 µM | TGI [1]: > 100 µM | TGI [2]: > 100 µM | TGI [3]: > 100 µM | TGI [5]: > 100 µM

CN1CCN(C)C1c1cccc(C2N(C)CCN2C)c1
TGI [6]: > 100 µM | TGI [7]: > 100 µM | TGI [1]: > 100 µM | TGI [3]: > 100 µM | TGI [5]: > 100 µM
